In data set [1] the test system is Alternaria solani. Put plainly: In vivo preventive test on Alternaria solani (tomato). The settings on record: 500 ppm of active ingredient, evaluated 7 days after inoculation. As to the method:
Solvent: 49 parts by weight of N,N-dimethylformamide Emulsifier: 1 part by weight of Alkylarylpolyglycolether To produce a suitable preparation of active compound, 1 part by weight of active compound is mixed with the stated amounts of solvent and emulsifier, and the concentrate is diluted with water to the desired concentration. To test for preventive activity, young plants are sprayed with the preparation of active compound at the stated rate of application. One day after this treatment, the plants are inoculated with an aqueous spore suspension of Alternaria solani.

In data set [2] the test system is Pyrenophora teres. Put plainly: In vivo preventive test on Pyrenophora teres (barley). As to conditions: 500 ppm of active ingredient, evaluated 7-9 days after inoculation. As to the method: Solvent: 49 parts by weight of N,N-dimethylformamide Emulsifier: 1 part by weight of alkylaryl polyglycol ether To produce a suitable preparation of active compound, 1 part by weight of active compound is mixed with the stated amounts of solvent and emulsifier, and the concentrate is diluted with water to the desired concentration. To test for preventive activity, young plants are sprayed with the preparation of active compound at the stated rate of application. One day after this treatment, the plants are inoculated with an aqueous spore suspension of Pyrenophora teres.

Data set [3] concerns aflatoxines produced by Aspergillus parasiticus. Put plainly: microbe, parasite or virus in culture. In kind it is cell-based.
Data set [4] has as its system Aspergillus parasiticus. Put plainly: microbe, parasite or virus in culture. In kind it is cell-based.
Data set [5] is described as follows: log P by HPLC on reversed-phase column (EEC Directive 79/831 Annex V.A8). In kind it is physicochemical. How it is done:
In table 1, the log P values were determined in accordance with EEC Directive 79/831 Annex V.A8 by HPLC (High Performance Liquid Chromatography) on a reversed-phase column (C18), using the method described below: Temperature: 40° C.; […]

The structures appear in SMILES notation. Where two headings read alike, the source gives them in different places.

Usually logP stands for a log measure of how a compound divides between an organic and an aqueous phase. Lower therefore signals lower lipophilicity. Take `CCC(C)C(C)N(C(=O)c1c(C(F)F)nn(C)c1Cl)C1CC1` (centres unmarked) [Example 303]: the values for the Efficacy in data set [1] and in data set [2] were 80% and 100%, respectively. Moreover, the “% Inhibition of Aflatoxin at 50 μM” value in data set [3] is reported as 100%. Moreover, the “% Inhibition of fungal growth at 50 μM” value in data set [4] is on record as 90%. Also, in data set [5], the logP stood at 3.52.
For the molecule `CCC(COc1cc(Cl)ccc1Cl)NC(=O)c1c(C(F)F)nn(C)c1F` (centres unmarked) [Example 175], the Efficacy in data set [1] and in data set [2] was 95% in each case. Further, in data set [3], the “% Inhibition of Aflatoxin at 50 μM” value was determined as 100%. Besides, in data set [4], the “% Inhibition of fungal growth at 50 μM” value is recorded as 92%. Moreover, the logP in data set [5] worked out at 3.83.
`CCC1CCCCC1CNC(=O)c1c(C(F)F)nn(C)c1F` (centres unmarked) [Example 364]: the Efficacy in data set [1] came to 95%; in data set [2], 80%. For the same molecule, the “% Inhibition of Aflatoxin at 50 μM” value in data set [3] came out at 99%. Also, in data set [4], the “% Inhibition of fungal growth at 50 μM” value was 81%. This molecule had a logP in data set [5] of 3.49.
On to `CN(CCN(C)c1cccc(Cl)c1)C(=O)c1c(C(F)F)nn(C)c1F` [Example 82], for which the Efficacy in data set [1] is on record as 95%. In data set [3], the “% Inhibition of Aflatoxin at 50 μM” value was determined as 100%. The “% Inhibition of fungal growth at 50 μM” value in data set [4] worked out at 100%. For the same molecule, the logP in data set [5] was 3.02.
For the molecule `Cc1cccc(OC2CCCC2NC(=O)c2c(C(F)F)nn(C)c2F)c1` (centres unmarked) [Example 259], the Efficacy was 90% in data set [1] and 78% in data set [2]. Also, the “% Inhibition of Aflatoxin at 50 μM” value in data set [3] worked out at 97%. Moreover, the “% Inhibition of fungal growth at 50 μM” value in data set [4] is reported as 82%. The logP in data set [5] was determined as 3.52.
On to `CC(CCc1ccccc1Cl)NC(=O)c1c(C(F)F)nn(C)c1Cl` (racemic) [Example 143], for which the Efficacy in data set [1] and in data set [2] was 100% each time. The “% Inhibition of Aflatoxin at 50 μM” value in data set [3] worked out at 96%. In data set [4], the “% Inhibition of fungal growth at 50 μM” value is 73%. The molecule also displayed a lipophilicity (logP) in data set [5] of 3.41.
For `CC(COc1cc(Cl)ccc1Cl)NC(=O)c1c(C(F)F)nn(C)c1F` (centres unmarked) [Example 173], the Efficacy in data set [1] amounted to 90%; in data set [2], 78%. The “% Inhibition of Aflatoxin at 50 μM” value in data set [3] amounted to 100%. Besides, the “% Inhibition of fungal growth at 50 μM” value in data set [4] turned out to be 85%. The same molecule displayed a logP in data set [5] of 3.46.
Taken in the same sequence, the figures for `CC(CNC(=O)c1c(C(F)F)nn(C)c1F)Cc1cc(Cl)ccc1Cl` (centres unmarked) [Example 165] were 90%, 100%, 99%, 83% and 3.65.
`CN(C(=O)c1c(C(F)F)nn(C)c1F)C(CSCc1ccccc1)C1CC1` (centres unmarked) [Example 225]: in data set [1], the Efficacy amounted to 95%. Further, in data set [3], the “% Inhibition of Aflatoxin at 50 μM” value was determined as 100%. For the same molecule, the “% Inhibition of fungal growth at 50 μM” value in data set [4] turned out to be 85%. This molecule also yielded a logP in data set [5] of 3.46.
`CC(COc1cc(Cl)cc(Cl)c1)NC(=O)c1c(C(F)F)nn(C)c1Cl` (racemic) [Example 122]: the Efficacy in data set [1] and in data set [2] was 100% in each case. In addition, in data set [3], the “% Inhibition of Aflatoxin at 50 μM” value was 100%. Further, in data set [4], the “% Inhibition of fungal growth at 50 μM” value was found to be 91%. Besides, the logP in data set [5] is 3.92.
`CC(COc1ccc(Cl)cc1Cl)NC(=O)c1c(C(F)F)nn(C)c1Cl` (centres unmarked) [Example 190]: the figures for the Efficacy in data set [1] and in data set [2] were 90% and 95%, respectively. The “% Inhibition of Aflatoxin at 50 μM” value in data set [3] is on record as 88%. Also, in data set [4], the “% Inhibition of fungal growth at 50 μM” value came to 77%. In data set [5], this molecule came in with a logP of 3.76.
Taken in the same sequence, the figures for `CCC(COc1cccc2ccccc12)NC(=O)c1c(C(F)F)nn(C)c1F` (centres unmarked) [Example 222] were 90%, 90%, 91%, 78% and 3.71.
Consider `CC(CNC(=O)c1c(C(F)F)nn(C)c1F)Cc1cc(Cl)cc(Cl)c1` (centres unmarked) [Example 116], for which the Efficacy in data set [1] came out at 90%; in data set [2], 100%. The “% Inhibition of Aflatoxin at 50 μM” value in data set [3] is on record as 100%. The “% Inhibition of fungal growth at 50 μM” value in data set [4] is listed as 82%. In addition, the logP in data set [5] is given as 3.83.
Regarding `Cn1nc(C(F)F)c(C(=O)N(C[Si](C)(C)Cc2ccc(Cl)cc2Cl)C2CC2)c1Cl` [Example 297], the Efficacy in data set [1] and in data set [2] was 100% in each case. Also, the “% Inhibition of Aflatoxin at 50 μM” value in data set [3] was found to be 100%. Further, the “% Inhibition of fungal growth at 50 μM” value in data set [4] is given as 85%. In data set [5], this molecule registered a logP of 5.19.
With `CC(CNC(=O)c1c(C(F)F)nn(C)c1F)Cc1ccc(Cl)c(Cl)c1` (racemic) [Example 128], the Efficacy in data set [1] turned out to be 95%; in data set [2] it was 100%. Besides, in data set [3], the “% Inhibition of Aflatoxin at 50 μM” value is given as 83%. Also, in data set [4], the “% Inhibition of fungal growth at 50 μM” value is recorded as 71%. The molecule further had a logP in data set [5] of 3.68.
In the same order, the values of `CC(CSc1ccc(Cl)cc1Cl)NC(=O)c1c(C(F)F)nn(C)c1F` (centres unmarked) [Example 191] are 95%, 100%, 100%, 100% and 3.76.
`Cn1nc(C(F)F)c(C(=O)N(CCOc2c(Cl)cccc2Cl)C2CC2)c1F` [Example 124, N-cyclopropyl-N-[2-(2,6-dichlorophenoxy)ethyl]-3-(difluoromethyl)-5-fluoro-1-methyl-1H-pyrazole-4-carboxamide]: the Efficacy in data set [1] is given as 95%; in data set [2], 90%. In addition, the “% Inhibition of Aflatoxin at 50 μM” value in data set [3] (50 µM) was found to be 99%. For the same molecule, the “% Inhibition of fungal growth at 50 μM” value in data set [4] (50 µM) was found to be 81%. The logP in data set [5] is 4.23.
Consider `CCC(COc1cc(Cl)cc(Cl)c1)NC(=O)c1c(C(F)F)nn(C)c1F` (racemic) [Example 123], for which the Efficacy in data set [1] came to 95%; in data set [2] it was 100%. Moreover, in data set [3], the “% Inhibition of Aflatoxin at 50 μM” value is 100%. In addition, the “% Inhibition of fungal growth at 50 μM” value in data set [4] is 96%. In data set [5], this molecule gave a logP of 4.04.
In the case of `Cn1nc(C(F)F)c(C(=O)NC(C)(C)CCc2cccc(C(F)(F)F)c2)c1F` [Example 136], the values for the Efficacy in data set [1] and in data set [2] were 80% and 95%, respectively. Further, the “% Inhibition of Aflatoxin at 50 μM” value in data set [3] turned out to be 93%. Moreover, the “% Inhibition of fungal growth at 50 μM” value in data set [4] was 71%. Moreover, the logP in data set [5] came to 3.94.
In the same order, the values of `CC(CCc1ccc(Cl)c(Cl)c1)NC(=O)c1c(C(F)F)nn(C)c1F` (racemic) [Example 132] are 100%, 100%, 100%, 85% and 3.65.
Taken in the same sequence, the figures for `CC(COc1ccc(Cl)cc1Cl)NC(=O)c1c(C(F)F)nn(C)c1F` (centres unmarked) [Example 189] were 90%, 100%, 100%, 94% and 3.58.
With `Cn1nc(C(F)F)c(C(=O)NC(COc2ccc(Cl)cc2Cl)C2CC2)c1F` (centres unmarked) [Example 193], the values for the Efficacy in data set [1] and in data set [2] were 95% and 94%, respectively. Besides, the “% Inhibition of Aflatoxin at 50 μM” value in data set [3] amounted to 100%. The “% Inhibition of fungal growth at 50 μM” value in data set [4] was determined as 92%. In data set [5], the logP is given as 3.92.
Taken in the same sequence, the figures for `Cn1nc(C(F)F)c(C(=O)NC(C)(C)CCc2cc(Cl)cc(Cl)c2)c1F` [Example 126] were 90%, 100%, 100%, 89% and 4.41.
Taken in the same sequence, the figures for `Cn1nc(C(F)F)c(C(=O)NC(C)(C)CCc2cc(Cl)ccc2Cl)c1F` [Example 178] were 95%, 100%, 100%, 88% and 4.26.
Regarding `Cn1nc(C(F)F)c(C(=O)NC(C)(C)CCc2ccccc2Cl)c1F` [Example 148], the Efficacy in data set [1] and in data set [2] was 95% each time. Also, the “% Inhibition of Aflatoxin at 50 μM” value in data set [3] was found to be 90%. In data set [4], the “% Inhibition of fungal growth at 50 μM” value was 67%. The molecule also showed a logP in data set [5] of 3.79.
Take `Cc1cccc(C)c1OCCNC(=O)c1c(C(F)F)nn(C)c1F` [Example 151]: the figures for the Efficacy in data set [1] and in data set [2] were 90% and 94%, respectively. For the same molecule, the “% Inhibition of Aflatoxin at 50 μM” value in data set [3] was found to be 100%. Further, in data set [4], the “% Inhibition of fungal growth at 50 μM” value is 100%. The logP in data set [5] came to 2.88.
As to `Cn1nc(C(F)F)c(C(=O)NC(C)(C)CCc2cc(Cl)cc(Cl)c2)c1Cl` [Example 125], the Efficacy in data set [1] is 95%; in data set [2] it was 100%. Besides, the “% Inhibition of Aflatoxin at 50 μM” value in data set [3] came to 96%. For the same molecule, the “% Inhibition of fungal growth at 50 μM” value in data set [4] is listed as 76%. For the same molecule, in data set [5], the logP amounted to 4.64.
As for `Cn1nc(C(F)F)c(C(=O)NCCOc2cc(Cl)ccc2Cl)c1F` [Example 169], the Efficacy in data set [1] is given as 90%. Also, the “% Inhibition of Aflatoxin at 50 μM” value in data set [3] is on record as 100%. Further, the “% Inhibition of fungal growth at 50 μM” value in data set [4] came to 84%. This molecule also displayed a log partition coefficient (logP) in data set [5] of 3.11.

The values above are taken from patent US8999956B2, “N-[(het)arylalkyl)] pyrazole(thio)carboxamides and their heterosubstituted analogues” (Bayer Intellectual Property GmbH, priority 2010, dated 2015).
